Like-named read-outs stand apart in the source and are kept apart here.
Columns and labels:
[1] = system: barnyardgrass (Echinochloa crus-galli); experiment: Test B flooded paddy test, barnyardgrass; details: 336 h, read-out: Plant response rating, Barnyardgrass
[2] = system: wheat (Triticum aestivum); experiment: Test A postemergence, wheat; assay type: in vivo; details: Triticum aestivum, post-emergence, 240 h, Postemergence, 0 to 100 scale (0 no effect, 100 complete control); for plant injury at 125 g/ha: 125 g ai/ha; for plant injury at 500 g/ha: 500 g ai/ha
Outline: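 Whole-plant herbicidal screen in pots of loam blended with sand. Sprays used a surfactant-containing, non-phytotoxic solvent vehicle. Timing was preemergence soil-directed at planting or postemergence at the one- to two-leaf stage (2–10 cm).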

[3] = system: Foxtail, Giant (giant foxtail, Setaria faberi); experiment: Test A preemergence, Foxtail, Giant; assay type: in vivo; details: Setaria faberi, pre-emergence, 240 h, Preemergence; for pest or weed control at 125 g/ha: 125 g ai/ha; for pest or weed control at 500 g/ha: 500 g ai/ha
Outline: (§1)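 Preemergence: seeded pots of loam plus sand received a directed soil spray. Postemergence: seedlings at one to two leaves, 2 to 10 cm high, were oversprayed. Each compound was formulated in a non-phytotoxic solvent mix that included a surfactant.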

[4] = system: ragweed (common ragweed, Ambrosia artemisiifolia); experiment: Test A postemergence, ragweed; assay type: in vivo; details: Ambrosia artemisiifolia, post-emergence, 240 h, Postemergence, 0 to 100 scale (0 no effect, 100 complete control); for pest or weed control at 125 g/ha: 125 g ai/ha; for pest or weed control at 500 g/ha: 500 g ai/ha
Outline: as §1

kochia (Bassia scoparia) = experiment: Test A preemergence, kochia; assay type: in vivo; details: Bassia scoparia, pre-emergence, 240 h, Preemergence; for pest or weed control at 125 g/ha: 125 g ai/ha; for pest or weed control at 500 g/ha: 500 g ai/ha
Outline: as §1

[5] = visual injury approx. 10 days, read-out: Plant response rating, Wheat
[6] = visual injury, approx. 10 days, read-out: Plant response rating, Wheat
[7] = visual injury on 0 to 100 scale (0 no effect, 100 complete control), approximately 10 days, read-out: Foxtail, Giant plant response rating
[8] = 0 to 100 scale (0 no effect, 100 complete control), read-out: Plant response rating, Foxtail, Giant
[9] = visual injury approx. 10 days, read-out: Plant response rating, Ragweed
[10] = visual injury, approx. 10 days, read-out: Plant response rating, Ragweed
[11] = visual injury on 0 to 100 scale (0 no effect, 100 complete control), approximately 10 days, read-out: Kochia plant response rating
[12] = 0 to 100 scale (0 no effect, 100 complete control), read-out: Plant response rating, Kochia
[13] = visual injury vs untreated controls after approx. 10 days, read-out: Wheat plant response rating
[14] = visual injury vs untreated controls after approx. 10 days, read-out: Ragweed plant response rating
[15] = read-out: Plant response rating, Wheat
[16] = read-out: Plant response rating, Ragweed
[17] = visual injury, 0 to 100 scale (0 no effect, 100 complete control), approx. 10 days, read-out: Plant response rating, Foxtail, Giant
[18] = visual injury, 0 to 100 scale (0 no effect, 100 complete control), approx. 10 days, read-out: Plant response rating, Kochia

SMILES | pest or weed control at 250 g/ha [1] | plant injury at 125 g/ha [2, 5] | plant injury at 500 g/ha [2, 6] | pest or weed control at 125 g/ha [3, 7] | pest or weed control at 500 g/ha [3, 8] | pest or weed control at 125 g/ha [4, 9] | pest or weed control at 500 g/ha [4, 10] | pest or weed control at 125 g/ha (kochia (Bassia scoparia); [11]) | pest or weed control at 500 g/ha (kochia (Bassia scoparia); [12]) | plant injury at 500 g/ha [2, 13] | pest or weed control at 500 g/ha [4, 14] | plant injury at 125 g/ha [2, 15] | pest or weed control at 125 g/ha [4, 16] | pest or weed control at 125 g/ha [3, 17] | pest or weed control at 125 g/ha (kochia (Bassia scoparia); [18]) | pest or weed control at 500 g/ha [3, 7] | pest or weed control at 500 g/ha (kochia (Bassia scoparia); [11])
Cc1cc(Cl)c(NS(=O)(=O)C(F)(F)F)cc1C(=O)N1CCOCC1 [Compound 16, N-[2-Chloro-4-methyl-5-(4-morpholinylcarbonyl)phenyl]-1,1,1-trifluoromethanesulfonamide] | 25% | 50% | 70% | 30% | 100% | 80% | 90% | 90% | 90% | – | – | – | – | – | – | – | –
Cc1cc(Cl)c(NS(=O)(=O)C(F)(F)F)cc1C(=O)N1CCCCC1 [Compound 18, N-[2-Chloro-4-methyl-5-(1-piperidinylcarbonyl)phenyl]-1,1,1-trifluoromethanesulfonamide] | 0% | 0% | 70% | 100% | 100% | 0% | 80% | 10% | 60% | – | – | – | – | – | – | – | –
CCc1cc(-c2cc(NS(=O)(=O)C(F)(F)F)c(C)cc2C)c(=O)n(C)n1 [Compound 34, N-[5-(6-Ethyl-2,3-dihydro-2-methyl-3-oxo-4-pyridazinyl)-2,4-dimethylphenyl]-1,1,1-trifluoromethanesulfonamide] | 0% | 0% | 0% | 0% | 30% | 0% | 0% | 30% | 70% | – | – | – | – | – | – | – | –
Cc1cc(C)c(N(COC(=O)C(C)(C)C)S(=O)(=O)C(F)(F)F)cc1C1=NO[C@@H]2CCC[C@H]12 [Compound 100, [[2,4-Dimethyl-5-[(3aR,6aR)-3a,5,6,6a-tetrahydro-4H-cyclopent[d]isoxazol-3-yl]phenyl][(trifluoromethyl)sulfonyl]amino]methyl 2,2-dimethylpropanoate] | 90% | 20% | – | 40% | 90% | 40% | – | 60% | 80% | 50% | 80% | – | – | – | – | – | –
Cc1cc(C)c(C2=NO[C@@H]3CCC[C@H]23)cc1NS(=O)(=O)C(F)(F)F [Compound 103, N-[2,4-Dimethyl-5-[(3aR,6aR)-3a,5,6,6a-tetrahydro-4H-cyclopent[d]isoxazol-3-yl]phenyl]-1,1,1-trifluoromethanesulfonamide] | 85% | 60% | – | 90% | 100% | 60% | – | 80% | 90% | 80% | 70% | – | – | – | – | – | –
Cc1cc(C)c(C2=NOC3CCOCC23)cc1NS(=O)(=O)C(F)(F)F (stereo not drawn) [Compound 120, N-[2,4-Dimethyl-5-(3a,6,7,7a-tetrahydro-4H-pyrano[3,4-d]isoxazol-3-yl)phenyl]-1,1,1-trifluoromethanesulfonamide] | 0% | 70% | – | 100% | 100% | 80% | – | 90% | 100% | 70% | 90% | – | – | – | – | – | –
Cc1cc(C)c(C2=NOC3COCCC23)cc1NS(=O)(=O)C(F)(F)F (stereo not drawn) [Compound 121, N-[2,4-Dimethyl-5-(3a,4,7,7a-tetrahydro-5H-pyrano[4,3-d]isoxazol-3-yl)phenyl]-1,1,1-trifluoromethanesulfonamide] | 40% | 60% | – | 100% | 100% | 90% | – | 90% | 90% | 70% | 90% | – | – | – | – | – | –
Cc1c(NS(=O)(=O)C(F)(F)F)cc(C(=O)N(C)C)c(C)c1F [Compound 128, 3-Fluoro-N,N,2,4-tetramethyl-5-[[(trifluoromethyl)sulfonyl]amino]benzamide] | 30% | 30% | – | 50% | 100% | 80% | – | 80% | 80% | 60% | 90% | – | – | – | – | – | –
Cc1cc(C)c(N(COC(=O)C(C)(C)C)S(=O)(=O)C(F)(F)F)cc1C1=NOC2(CCCC2)C1 [Compound 140, [[2,4-Dimethyl-5-(1-oxa-2-azaspiro[4.4]non-2-en-3-yl)phenyl][(trifluoromethyl)sulfonyl]amino]methyl 2,2-dimethylpropanoate] | 95% | – | – | 20% | 90% | – | – | 0% | 70% | 60% | 50% | 0% | 0% | – | – | – | –
Cc1cc(C)c(N(COC(=O)C(C)(C)C)S(=O)(=O)C(F)(F)F)cc1C1=NOC2(CCCCC2)C1 [Compound 159, [[2,4-Dimethyl-5-(1-oxa-2-azaspiro[4.5]dec-2-en-3-yl)phenyl][(trifluoromethyl)sulfonyl]amino]methyl 2,2-dimethylpropanoate] | 65% | – | – | 30% | 70% | – | – | 40% | 70% | 50% | 90% | 30% | 60% | – | – | – | –
Cc1c(NS(=O)(=O)C(F)(F)F)cc(C(=O)N2CCOCC2)c(C)c1F [Compound 190, 1,1,1-Trifluoro-N-[3-fluoro-2,4-dimethyl-5-(4-morpholinylcarbonyl)phenyl]methanesulfonamide] | 0% | – | – | – | 100% | – | – | – | 100% | 70% | 90% | 40% | 80% | 90% | 90% | – | –
Cc1cc(C)c(C2=NOC3(CCCCC3)C2)cc1NS(=O)(=O)C(F)(F)F [Compound 197, N-[2,4-Dimethyl-5-(1-oxa-2-azaspiro[4.5]dec-2-en-3-yl)phenyl]-1,1,1-trifluoromethanesulfonamide] | 95% | – | – | – | 100% | – | – | – | 90% | 70% | 80% | 60% | 80% | 100% | 90% | – | –
Cc1cc(C)c(C2=NOC3(CCCC3)C2)cc1NS(=O)(=O)C(F)(F)F [Compound 207, N-[2,4-Dimethyl-5-(1-oxa-2-azaspiro[4.4]non-2-en-3-yl)phenyl]-1,1,1-trifluoromethanesulfonamide] | 75% | – | – | – | 100% | – | – | – | 90% | 70% | 70% | 60% | 20% | 90% | 90% | – | –
Cc1cc(Cl)c(NS(=O)(=O)C(F)(F)F)cc1C(=O)N1CCC(F)(F)CC1 [Compound 229, N-[2-Chloro-5-[(4,4-difluoro-1-piperidinyl)carbonyl]-4-methylphenyl]-1,1,1-trifluoromethanesulfonamide] | 10% | – | – | – | – | – | – | – | – | 70% | 90% | 60% | 90% | 60% | 80% | 100% | 100%

— patent publication US20230278972A1, “SUBSTITUTED HALOALKYL SULFONANILIDE HERBICIDES” (FMC Corporation, priority 2020, published 2023)
